# Experimental data from US20020065212A1, “METHODS OF TREATING DISEASE USING SERTOLI CELLS AND ALLOGRAFTS OR XENOGRAFTS” (priority 1996, published 2002).
# Assays:
# [1] = system: spontaneously diabetic BB/Wor dp rats; assay: Metabolic parameters, serum insulin and glucagon after intratesticular islet grafts; format: in vivo, rat
# From the text: This study examined insulin and glucagon secretory patterns in spontaneously diabetic bb/Wor dp rats transplanted with abdominal, intratesticular, islet grafts. Diabetic, BB/Wor dp, rats received intratesticular islet grafts from MHC-compatible BB/Wor dr rats and no immunosuppression. After a period of 74±15 days, of normoglycemia, three different groups (controls; BB/Wor dp, transplanted; and BB/Wor dp, insulin treated) were given the following challenges; (1) an oral glucose tolerance test (OGTT), (2) a single oral dose of glipizide, followed by an OGTT, and (3) arginine, by intravenous infusion. The results of this study are shown in Tables 1 and 2 and FIGS. 5 and 6.
# [2] = system: spontaneously diabetic BB/Wor dp rats; assay: Pancreatic and testicular insulin and glucagon content; format: in vivo, rat
substance,measurement,setting,value
insulin,Plasma Glucose,[1]; After 2.5 months,350 ± 40 mg/dL
same,Plasma Glucose,[1]; Prior to therapy,510 ± 13+ mg/dl
same,Fasting Plasma Glucagon,"[1]; rat, in vivo",47.4 ± 4.9 pg/mL
same,Weight gain,"[1]; rat, in vivo",48 ± 14$ g
same,Pancreatic Glucagon content,[2]; pancreas,6.9 ± 0.80 ng/mg
same,Pancreatic Insulin content,[2]; pancreas,0.76 ± 0.12 µg/g
same,Testicular Glucagon content,[2]; testes fractions,0.0 ng/mg
same,Testicular Insulin content,[2]; testes fractions,0.0 µg/g
